Where two headings read alike, the source gives them in different places.
Legend:
[1] = tested on: eight selected human ovarian cancer cell lines; experiment: In vitro cytotoxicity 2D assay (CellTiter-Blue cell viability), panel mean; type: cell-based; conditions: for IC50: 96 h treatment, mean over eight ovarian cancer cell lines, read-out: geometric mean absolute IC50 value
Source text: (§1) In the present study the human ovarian cancer cell lines OVXF 899, OVXF 1023, A2780, SK-OV-3, OVCAR-3, IGR-OV1, OVCAR-5 and NCI/ADR-RES were used. OVXF 899 and OVXF 1023 were established at Oncotest, Germany from the corresponding human patient derived xenograft. A2780, IGR-OV1, NCl/ADR-RES, OVCAR-3 and OVCAR-5 were kindly provided by the NCI (National Cancer Institute, Bethesda, Md., USA). SK-OV-3 was purchased from ATCC (Rockville, Md., USA). Authenticity of cell lines was confirmed at the DSMZ by STR (short tandem repeat) analysis, a PCR based DNA-fingerprinting methodology. Cell lines were routinely passaged once or twice weekly and maintained in culture for up to 20 passages. All cells were grown at 37° C. in a humidified atmosphere with 5% CO2 in RPMI 1640 medium (25 mM HEPES, with L-glutamine, #FG1385, Biochrom, Berlin, Germany) supplemented with 10% (v/v) fetal calf serum (Sigma, Taufkirchen, Germany) and 0.1 mg/mL gentamicin (Life Technologies, Karlsruhe, Germany).
(§2) The CellTiter-Blue® Cell Viability Assay (#G8081, Promega) was used according to manufacturer's instructions. Briefly, cells were harvested from exponential phase cultures, […] on the cell line's growth rate. After a 24 h recovery period to allow the cells to resume exponential growth, test compounds were added.
(§3) Following an incubation period of up to four hours, fluorescence (FU) was measured by using the Enspire Multimode Plate Reader (excitation λ=531 nm, emission λ=615 nm). For calculations, the mean values of duplicate/six fold (untreated control) data were used. Sigmoidal concentration-response curves were fitted to the data points (T/C values) obtained for each cell line using 4 parameter non-linear curve fit (Oncotest Warehouse Software).
The in vitro anti-tumor activity of methacycline in eight selected human ovarian cancer cell lines were evaluated. […] Anti-tumor activity was assessed by using the CellTiter-Blue® Cell Viability Assay. Potency is expressed as absolute IC50 and relative IC50 values, calculated by non-linear regression analysis. […]

[2] = tested on: eight human tumor cell lines of ovarian cancer; experiment: In vitro cytotoxicity 3D clonogenic assay, panel; type: cell-based; conditions: for IC50: Homo sapiens, continuous exposure 8 to 13 days
Protocol: (§4) In the present study methacycline and the reference compound paclitaxel were investigated for anticancer activity ex vivo in eight human tumor cell lines of ovarian cancer. Tests were carried out using a 3D clonogenic assay in 96-well format with image based read-out. The aim of the study was to investigate antitumor potency and tumor type selectivity of the compound. Cell lines were routinely passaged one or twice weekly. All cells were grown at 37° C. in a humidified atmosphere with 5% CO2 in RPMI 1640 medium (Biochrom) supplemented with 10% (v/v) fetal calf serum and 0.1 mg/mL gentamicin. The percentage of viable cells was determined in a Neubauer-hemocytometer using trypan blue exclusion.
The clonogenic assay was carried out in a 96 well plate format using ultra low attachment plates. For each test, cells were prepared as described above and assay plates were prepared as follows: each test well contained a layer of semi-solid medium with tumor cells (50 μL), and a second layer of medium supernatant with or without test compound (100 μL). The cell layer consisted of 2·10^3 to 3·10^3 tumor cells per well, which were seeded in 50 μL/well cell culture medium (IMDM, supplemented with 20% (v/v) fetal calf serum, 0.01% (w/v) gentamicin, and 0.4% (w/v) agar. After 24 hours the test compounds were added after serial dilution in cell culture medium, and left on the cells for the duration of the experiment (continuous exposure, 100 μl drug overlay). Test concentrations ranged from 0.01 μM to 316.2 μM (methacycline), and 0.000095 μM to 3 (paclitaxel). Every plate included six untreated control wells and drug-treated groups in duplicate at 9 concentrations. Cultures were incubated at 37° C. and 7.5% CO2 in a humidified atmosphere for 8 to 13 days and monitored closely for colony growth using an inverted microscope. Within this period, ex vivo tumor growth led to the formation of colonies with a diameter of >50 μm. At the time of maximum colony formation, counts were performed with an automatic image analysis system (Bioreader 5000-Wa Biosys GmbH). […]

IGR-OV1 [3] = experiment: In vitro cytotoxicity 3D clonogenic assay; type: cell-based, human; conditions: based on relative IC50
Protocol: as §4
(§5) The clonogenic assay was carried out in a 96 well plate format using ultra low attachment plates. For each test, cells were prepared as described above and assay plates were prepared as follows: each test well contained a layer of semi-solid medium with tumor cells (50 μL), and a second layer of medium supernatant with or without test compound (100 μL). The cell layer consisted of 2·10^3 to 3·10^3 tumor cells per well, which were seeded in 50 μL/well cell culture medium (IMDM, supplemented with 20% (v/v) fetal calf serum, 0.01% (w/v) gentamicin, and 0.4% (w/v) agar. After 24 hours the test compounds were added after serial dilution in cell culture medium, and left on the cells for the duration of the experiment (continuous exposure, 100 μl drug overlay). Test concentrations ranged from 0.01 μM to 316.2 μM (methacycline), and 0.000095 μM to 3 (paclitaxel). Every plate included six untreated control wells and drug-treated groups in duplicate at 9 concentrations. Cultures were incubated at 37° C. and 7.5% CO2 in a humidified atmosphere for 8 to 13 days and monitored closely for colony growth using an inverted microscope. Within this period, ex vivo tumor growth led to the formation of colonies with a diameter of >50 μm. At the time of maximum colony formation, counts were performed with an automatic image analysis system (Bioreader 5000-Wa Biosys GmbH). 48 hours prior to evaluation, vital colonies were stained with a sterile aqueous solution of 2-(4-iodophenyl)-3-(4-nitrophenyl)-5-phenyltetrazolium chloride (1 mg/ml, 100 μl/well)

OVCAR-5 [4] = experiment: In vitro cytotoxicity 3D clonogenic assay; type: cell-based, human; conditions: based on relative IC50
Protocol: as §4, §5

OVCAR3 = experiment: In vitro cytotoxicity 3D clonogenic assay; type: cell-based, human; conditions: based on relative IC50 (individual IC50 <1/2 mean IC50)
Protocol: as §4, §5

OVXF IGR-OV1 = experiment: In vitro combination study, 2D monolayer CellTiter-Blue, 5x5 matrix; type: cell-based, human; conditions: single agent, four days, read-out: IC50, tumor cell viability, single agent
Protocol: (§6) The objective of this study was to assess anti-tumor efficacy of methacycline in combination with paclitaxel in a 5×5 matrix combination format against various ovarian cancer cell lines. The compounds were tested in ovarian cell lines, namely OVXF A2780 and OVXF SK-OV-3, obtained from National Cancer Institute (Bethesda, Md., USA). OVXF SKOV-3 cells were obtained from American Type Culture Collection (Rockville, Md., USA). Authenticity of cell lines was confirmed at the DSMZ by STR analysis. Cell lines were routinely passaged once or twice weekly and maintained in culture for up to 20 passages. Cells were grown at 37° C. in a humidified atmosphere with 5% CO2 in RPMI 1640 medium (25 mM HEPES, with L-glutamine, Biochrom) supplemented with 10% (v/v) fetal calf serum and 0.1 mg/mL gentamicin. The percentage of viable cells was determined in a Neubauer-hemocytometer using trypan blue exclusion.
(§7) The CellTiter-Blue® Cell Viability Assay (#G8081, Promega) was used according to manufacturer's instructions. Briefly, cells were harvested from exponential phase cultures, counted and plated in 96-well flat-bottom microtiter plates at a cell density of 4,000-8,000 cells/well depending on the cell line's growth rate. After a 24 h recovery period to allow the cells to resume exponential growth, 10 μL of culture medium (twelve control wells/plate) or of culture medium with test compound were added, and treatment continued for four days. After four days treatment of cells, 20 μl/well CellTiter-Blue® reagent was added. Following an incubation period of up to four hours, fluorescence (FU) was measured by using the Enspire Multimode Plate Reader (excitation λ=531 nm, emission λ=615 nm). […]
(§8) In the present study, methacycline was tested alone and in combination with paclitaxel in order to investigate the ability to inhibit tumor cell growth of ovarian cancer cell lines in a 5×5 matrix combination format. Efficacy of methacycline combined with paclitaxel was assessed by measuring tumor cell viability using a 2D monolayer assay in cell lines OVXF A2780, OVXF IGR-OV1, OVXF SK-OV-3.

OVXF SK-OV-3 = experiment: as above; type: cell-based; conditions: Homo sapiens, 96 h, single agent, four days, read-out: IC50, tumor cell viability, single agent
Protocol: as §6
The CellTiter-Blue® Cell Viability Assay (#G8081, Promega) was used according to manufacturer's instructions. Briefly, cells were harvested from exponential phase cultures, counted and plated in 96-well flat-bottom microtiter plates at a cell density of 4,000-8,000 cells/well depending on the cell line's growth rate. […] Following an incubation period of up to four hours, fluorescence (FU) was measured by using the Enspire Multimode Plate Reader (excitation λ=531 nm, emission λ=615 nm). […]

A2780 [5] = experiment: In vitro cytotoxicity 2D assay (CellTiter-Blue cell viability); type: cell-based, human; conditions: 96 h treatment, read-out: absolute IC50
Source text: as §1, §2, §3
(§9) The in vitro anti-tumor activity of methacycline in eight selected human ovarian cancer cell lines were evaluated. The test compounds was applied at 10 concentrations in half-log increments up to 300 μM. As a reference compound paclitaxel was tested in parallel. Cells were treated for 96 h with the test compounds. Anti-tumor activity was assessed by using the CellTiter-Blue® Cell Viability Assay. Potency is expressed as absolute IC50 and relative IC50 values, calculated by non-linear regression analysis. Results are depicted in FIGS. 1-4.

IGR-OV1 [6] = experiment: as above; type: cell-based, human; conditions: 96 h treatment, read-out: absolute IC50
Source text: as §1, §2, §3, §9

NCI/ADR-RES = experiment: as above; type: cell-based, human; conditions: 96 h treatment, read-out: absolute IC50
Source text: as §1, §2, §3, §9

OVCAR-3 = experiment: as above; type: cell-based, human; conditions: 96 h treatment, read-out: absolute IC50
Source text: as §1, §2, §3, §9

OVCAR-5 [7] = experiment: as above; type: cell-based, human; conditions: 96 h treatment, read-out: absolute IC50
Source text: as §1, §2, §3, §9

SK-OV-3 [8] = experiment: as above; type: cell-based, human; conditions: 96 h treatment, read-out: absolute IC50
Source text: as §1, §2, §3, §9

[9] = tested on: ovarian cancer cell lines A2780, OVCAR3, OVCAR-5, and SK-OV-3; experiment: In vitro cytotoxicity 3D clonogenic assay, responding lines; type: cell-based, human; conditions: range over A2780, OVCAR3, OVCAR-5, SK-OV-3, read-out: IC50 values, inhibition of colony formation
Protocol: as §4
The clonogenic assay was carried out in a 96 well plate format using ultra low attachment plates. For each test, cells were prepared as described above and assay plates were prepared as follows: each test well contained a layer of semi-solid medium with tumor cells (50 μL), and a second layer of medium supernatant with or without test compound (100 μL). […] Cultures were incubated at 37° C. and 7.5% CO2 in a humidified atmosphere for 8 to 13 days and monitored closely for colony growth using an inverted microscope. […]

A2780 [10] = experiment: In vitro cytotoxicity 3D clonogenic assay; type: cell-based, human; conditions: based on relative IC50 (individual IC50 <1/2 mean IC50)
Protocol: as §4, §5

NCI-ADR-RES = experiment: In vitro cytotoxicity 3D clonogenic assay; type: cell-based, human
Protocol: as §4, §5

OVXF 1023L = experiment: In vitro cytotoxicity 3D clonogenic assay; type: cell-based, human
Protocol: as §4, §5

OVXF 899L = experiment: In vitro cytotoxicity 3D clonogenic assay; type: cell-based, human
Protocol: as §4, §5

SK-OV-3 [11] = experiment: In vitro cytotoxicity 3D clonogenic assay; type: cell-based, human; conditions: based on relative IC50 (individual IC50 <1/2 mean IC50)
Protocol: as §4, §5

OVXF A2780 = experiment: In vitro combination study, 2D monolayer CellTiter-Blue, 5x5 matrix; type: cell-based, human; conditions: single agent, four days, read-out: IC50, tumor cell viability, single agent
Protocol: as §6, §7, §8

CC(=O)O[C@H]1C(=O)[C@@]2(C)[C@H]([C@H](OC(=O)c3ccccc3)[C@]3(O)C[C@H](OC(=O)[C@H](O)[C@@H](NC(=O)c4ccccc4)c4ccccc4)C(C)=C1C3(C)C)[C@]1(OC(C)=O)CO[C@@H]1C[C@@H]2O [paclitaxel]
IC50 ([1]; Homo sapiens): 0.045 µM
IC50 ([2]; read-out: mean absolute IC50 value, colony formation): 0.077 µM
IC50 ([2]; read-out: mean relative IC50 value, colony formation): 0.012 µM
bottom plateaus of the concentration-effect curves of responding tumor models ([2]; responding tumor models): 0% to 60
activity against colony formation (IGR-OV1 [3]): above average activity
activity against colony formation (OVCAR-5 [4]): above average activity
activity against colony formation (OVCAR3): above average activity
IC50 (OVXF IGR-OV1; Homo sapiens, IGROV-1, 96 h): 0.003 µM
IC50 (OVXF SK-OV-3): 0.009 µM

methacycline
IC50 [1]: 27.2 µM
difference between the most sensitive and most resistant cell line ([1]; IGR-OV1 vs NCI/ADR-RES IC50): 13 fold
IC50 (A2780 [5]): 22.7 µM
IC50 (IGR-OV1 [6]): 7.92 µM
IC50 (NCI/ADR-RES): 104 µM
IC50 (OVCAR-3): 17.5 µM
IC50 (OVCAR-5 [7]): 14.5 µM
IC50 (SK-OV-3 [8]): 18.6 µM
IC50 [9]: 54.1 to 71.1 µM
activity against colony formation (A2780 [10]): above average activity
activity against colony formation (IGR-OV1 [3]): No activity
activity against colony formation (NCI-ADR-RES): No activity
activity against colony formation (OVCAR3): above average activity
activity against colony formation (OVXF 1023L): No activity
activity against colony formation (OVXF 899L): No activity
activity against colony formation (SK-OV-3 [11]): above average activity
IC50 (OVXF A2780): 34.6 µM
IC50 (OVXF IGR-OV1): 43.3 µM
